These molecules were tested against T1, BA/F3-FLT3-ITD + F691L cells (Homo sapiens, UniProt P36888, F691L, cells depend on it, form not given) (assay: BA/F3-FLT3-ITD + F691L cell proliferation assay (CellTiter-Glo)). Details: BaF3 FLT3 ITD/F691L cells; read-out: Cell Activity (IC50 μM) BaF3_FLT3_ITD/F691L.
T1 sequence (P36888 1-993 F691L): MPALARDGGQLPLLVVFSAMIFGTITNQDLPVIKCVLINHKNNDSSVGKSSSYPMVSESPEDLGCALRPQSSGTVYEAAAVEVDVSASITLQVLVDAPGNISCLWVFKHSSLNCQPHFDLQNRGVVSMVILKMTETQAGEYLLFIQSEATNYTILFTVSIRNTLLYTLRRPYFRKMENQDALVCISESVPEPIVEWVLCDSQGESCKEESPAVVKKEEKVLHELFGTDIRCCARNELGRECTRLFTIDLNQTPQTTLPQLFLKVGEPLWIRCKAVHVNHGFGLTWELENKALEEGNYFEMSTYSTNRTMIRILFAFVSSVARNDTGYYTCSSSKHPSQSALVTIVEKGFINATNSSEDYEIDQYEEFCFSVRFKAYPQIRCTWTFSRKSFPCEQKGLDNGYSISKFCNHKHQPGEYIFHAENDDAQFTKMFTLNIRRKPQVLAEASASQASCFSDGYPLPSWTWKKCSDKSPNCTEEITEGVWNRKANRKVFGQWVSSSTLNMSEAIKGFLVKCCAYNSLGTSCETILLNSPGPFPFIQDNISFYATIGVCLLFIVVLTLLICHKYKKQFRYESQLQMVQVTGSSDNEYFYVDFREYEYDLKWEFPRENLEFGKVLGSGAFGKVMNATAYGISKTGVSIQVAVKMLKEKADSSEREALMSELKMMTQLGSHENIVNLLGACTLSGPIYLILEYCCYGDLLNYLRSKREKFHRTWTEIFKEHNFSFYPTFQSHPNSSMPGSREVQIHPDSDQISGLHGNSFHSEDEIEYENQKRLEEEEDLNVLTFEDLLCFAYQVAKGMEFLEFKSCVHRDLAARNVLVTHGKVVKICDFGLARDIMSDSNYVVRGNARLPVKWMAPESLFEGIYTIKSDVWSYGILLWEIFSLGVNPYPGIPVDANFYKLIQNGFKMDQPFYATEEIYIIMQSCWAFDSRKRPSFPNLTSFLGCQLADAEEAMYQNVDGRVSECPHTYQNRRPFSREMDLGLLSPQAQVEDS
Format: cell-based, murine
Procedure, shortened: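 Murine BA/F3 cells transfected with full-length FLT3 carrying ITD plus D835Y or F691L, grown without IL-3 so growth depends on FLT3. Seeded at 1×10^4 cells/well and dosed with 8 points, 10 to 0.0046 μM, 0.2% DMSO, for three days at 37 °C. IC50 from CellTiter-Glo luminescence (ATP content).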

Row | Compound | GI50 [µM]
1 | CC(C)(C)n1cnc2ccc(-c3c[nH]c4ncc(-c5ccc(N6CCOCC6)nc5)cc34)cc21 [P-322, 4-[5-[3-(3-tert-butylbenzimidazol-5-yl)-1H-pyrrolo[2,3-b]pyridin-5-yl]-2-pyridyl]morpholine] | 0.0001 to 1
2 | c1cc(N2CCCCC2)ncc1-c1cnc2[nH]cc(-c3ccc4ncn(C5CCCNC5)c4c3)c2n1 (stereo not drawn) [P-348, 7-[3-(3-piperidyl)benzimidazol-5-yl]-2-[6-(1-piperidyl)-3-pyridyl]-5H-pyrrolo[2,3-b]pyrazine] | 0.0001 to 1
3 | CC(C)(C)n1cnc2ccc(-c3n[nH]c4ncc(-c5cccc(N6CCCS6(=O)=O)c5)cc34)cc21 [P-296, 2-[3-[3-(3-tert-butylbenzimidazol-5-yl)-1H-pyrazolo[3,4-b]pyridin-5-yl]phenyl]-1,2-thiazolidine 1,1-dioxide] | 0.0001 to 1
4 | CCN1CCN(c2cccc(-c3cnc4[nH]cc(-c5ccc6ncn(C7CCCNC7)c6c5)c4n3)c2)CC1 (stereo not drawn) [P-329, 2-[3-(4-ethylpiperazin-1-yl)phenyl]-7-[3-(3-piperidyl)benzimidazol-5-yl]-5H-pyrrolo[2,3-b]pyrazine] | 0.0001 to 1
5 | O=S1(=O)CCCN1c1cc(-c2cnc3[nH]cc(-c4ccc5ncn(C6CCCNC6)c5c4)c3n2)ccn1 (stereo not drawn) [P-295, 2-[4-[7-[3-(3-piperidyl)benzimidazol-5-yl]-5H-pyrrolo[2,3-b]pyrazin-2-yl]-2-pyridyl]-1,2-thiazolidine 1,1-dioxide] | 0.0001 to 1
6 | CC(C)(C)n1cnc2ccc(-c3c[nH]c4ncc(-c5cccc(N6CCOCC6)c5)cc34)cc21 [P-316, 4-[3-[3-(3-tert-butylbenzimidazol-5-yl)-1H-pyrrolo[2,3-b]pyridin-5-yl]phenyl]morpholine] | 0.0001 to 1
7 | CN1CCN(c2ccc(-c3cnc4[nH]cc(-c5ccc6ncn(C7CCCNC7)c6c5)c4n3)cc2)CC1 (stereo not drawn) [P-344, 2-[4-(4-methylpiperazin-1-yl)phenyl]-7-[3-(3-piperidyl)benzimidazol-5-yl]-5H-pyrrolo[2,3-b]pyrazine] | 0.0001 to 1
8 | CCN1CCN(c2cc(-c3cnc4[nH]cc(-c5ccc6ncn(C7CCCNC7)c6c5)c4n3)ccn2)CC1 (stereo not drawn) [P-327, 2-[2-(4-ethylpiperazin-1-yl)-4-pyridyl]-7-[3-(3-piperidyl)benzimidazol-5-yl]-5H-pyrrolo[2,3-b]pyrazine] | 0.0001 to 1
9 | COc1ncc(-c2cnc3[nH]cc(-c4ccc5ncn(C6CCCNC6)c5c4)c3c2)cn1 (stereo not drawn) [P-276, 5-(2-methoxypyrimidin-5-yl)-3-[3-(3-piperidyl)benzimidazol-5-yl]-1H-pyrrolo[2,3-b]pyridine] | 10 to 200
10 | CC(C)(C)n1cnc2ccc(-c3c[nH]c4ncc(-c5cccc(N6CCCS6(=O)=O)c5)cc34)cc21 [P-278, 2-[3-[3-(3-tert-butylbenzimidazol-5-yl)-1H-pyrrolo[2,3-b]pyridin-5-yl]phenyl]-1,2-thiazolidine 1,1-dioxide] | 0.0001 to 1
11 | c1cc(N2CCCCC2)ccc1-c1cnc2[nH]cc(-c3ccc4ncn(C5CCCNC5)c4c3)c2n1 (stereo not drawn) [P-346, 7-[3-(3-piperidyl)benzimidazol-5-yl]-2-[4-(1-piperidyl)phenyl]-5H-pyrrolo[2,3-b]pyrazine] | 0.0001 to 1
12 | CCN1CCN(c2ccc(-c3cnc4[nH]cc(-c5ccc6ncn(C7CCCNC7)c6c5)c4n3)cc2)CC1 (stereo not drawn) [P-359, 2-[4-(4-ethylpiperazin-1-yl)phenyl]-7-[3-(3-piperidyl)benzimidazol-5-yl]-5H-pyrrolo[2,3-b]pyrazine] | 0.0001 to 1
13 | COc1cc(-c2cnc3[nH]cc(-c4ccc5ncn(C6CCCN(S(C)(=O)=O)C6)c5c4)c3n2)ccn1 (stereo not drawn) [P-281, 2-(2-methoxy-4-pyridyl)-7-[3-(1-methylsulfonyl-3-piperidyl)benzimidazol-5-yl]-5H-pyrrolo[2,3-b]pyrazine] | 0.0001 to 1
14 | c1cc(-c2cnc3[nH]cc(-c4ccc5ncn(C6CCCNC6)c5c4)c3c2)cc(N2CCOCC2)c1 (stereo not drawn) [P-317, 4-[3-[3-[3-(3-piperidyl)benzimidazol-5-yl]-1H-pyrrolo[2,3-b]pyridin-5-yl]phenyl]morpholine] | 0.0001 to 1
15 | CC(C)(C)n1cnc2ccc(-c3c[nH]c4nnc(Cl)cc34)cc21 [P-314, 5-(3-tert-butylbenzimidazol-5-yl)-3-chloro-7H-pyrrolo[2,3-c]pyridazine] | 0.0001 to 1
16 | CC(C)(C)n1cnc2ccc(-c3c[nH]c4ncc(-c5ccc(N6CCCS6(=O)=O)cc5)cc34)cc21 [P-320, 2-[4-[3-(3-tert-butylbenzimidazol-5-yl)-1H-pyrrolo[2,3-b]pyridin-5-yl]phenyl]-1,2-thiazolidine 1,1-dioxide] | 0.0001 to 1
17 | COc1cnc2[nH]cc(-c3ccc4ncn(-c5ccccc5)c4c3)c2c1 [P-068, 5-methoxy-3-(3-phenylbenzimidazol-5-yl)-1H-pyrrolo[2,3-b]pyridine] | 0.0001 to 1

More lines, now with the values ahead:

Row | GI50 [µM] | Compound
18 | 0.0001 to 1 | CN1CCN(c2cccc(-c3cnc4[nH]cc(-c5ccc6ncn(C(C)(C)C)c6c5)c4n3)c2)CC1 [P-331, 7-(3-tert-butylbenzimidazol-5-yl)-2-[3-(4-methylpiperazin-1-yl)phenyl]-5H-pyrrolo[2,3-b]pyrazine]
19 | 0.0001 to 1 | CC(C)(C)n1cnc2ccc(-c3c[nH]c4ncc(-c5cnc(C#N)nc5)nc34)cc21 [P-352, 5-[7-(3-tert-butylbenzimidazol-5-yl)-5H-pyrrolo[2,3-b]pyrazin-2-yl]pyrimidine-2-carbonitrile]
20 | 0.0001 to 1 | Cc1ccc(-c2cnc3[nH]cc(-c4ccc5ncn(C(C)(C)C)c5c4)c3n2)cn1 [P-388, 7-(3-tert-butylbenzimidazol-5-yl)-2-(6-methyl-3-pyridyl)-5H-pyrrolo[2,3-b]pyrazine]
21 | 0.0001 to 1 | CC(C)(C)n1cnc2ccc(-c3c[nH]c4ncc(-c5ccnc(N6CCCCS6(=O)=O)c5)nc34)cc21 [P-309, 2-[4-[7-(3-tert-butylbenzimidazol-5-yl)-5H-pyrrolo[2,3-b]pyrazin-2-yl]-2-pyridyl]thiazinane 1,1-dioxide]
22 | 0.0001 to 1 | Cc1ncc(C#Cc2cnc3[nH]cc(-c4ccc5ncn(C(C)(C)C)c5c4)c3n2)cn1 [P-284, 7-(3-tert-butylbenzimidazol-5-yl)-2-[2-(2-methylpyrimidin-5-yl)ethynyl]-5H-pyrrolo[2,3-b]pyrazine]
23 | 0.0001 to 1 | CC(C)(C)n1cnc2ccc(-c3c[nH]c4ncc(-c5ccnc(N6CCCS6(=O)=O)c5)nc34)cc21 [P-294, 2-[4-[7-(3-tert-butylbenzimidazol-5-yl)-5H-pyrrolo[2,3-b]pyrazin-2-yl]-2-pyridyl]-1,2-thiazolidine 1,1-dioxide]
24 | 0.0001 to 1 | CCN1CCN(c2ccc(-c3cnc4[nH]cc(-c5ccc6ncn(C(C)(C)C)c6c5)c4n3)cc2)CC1 [P-358, 7-(3-tert-butylbenzimidazol-5-yl)-2-[4-(4-ethylpiperazin-1-yl)phenyl]-5H-pyrrolo[2,3-b]pyrazine]
25 | 0.0001 to 1 | COc1ncc(-c2cnc3[nH]cc(-c4ccc5ncn(C(C)(C)C)c5c4)c3n2)cc1C#N [P-405, 5-[7-(3-tert-butylbenzimidazol-5-yl)-5H-pyrrolo[2,3-b]pyrazin-2-yl]-2-methoxy-pyridine-3-carbonitrile]
26 | 0.0001 to 1 | CC(C)(C)n1cnc2ccc(-c3c[nH]c4ncc(-c5cnc(N6CCC(F)(F)CC6)nc5)nc34)cc21 [P-357, 7-(3-tert-butylbenzimidazol-5-yl)-2-[2-(4,4-difluoro-1-piperidyl)pyrimidin-5-yl]-5H-pyrrolo[2,3-b]pyrazine]
27 | 0.0001 to 1 | CC(C)(C)n1cnc2ccc(-c3c[nH]c4ncc(-c5ccnc(C#N)c5)nc34)cc21 [P-301, 4-[7-(3-tert-butylbenzimidazol-5-yl)-5H-pyrrolo[2,3-b]pyrazin-2-yl]pyridine-2-carbonitrile]
28 | 0.0001 to 1 | CCN1CCN(c2ccc(-c3cnc4[nH]cc(-c5ccc6ncn(C(C)(C)C)c6c5)c4n3)cn2)CC1 [P-365, 7-(3-tert-butylbenzimidazol-5-yl)-2-[6-(4-ethylpiperazin-1-yl)-3-pyridyl]-5H-pyrrolo[2,3-b]pyrazine]
29 | 0.0001 to 1 | COc1cnc2[nH]cc(-c3ccc4ncn(C(C)(C)C)c4c3)c2c1 [P-074, 1-tert-butyl-6-(5-methoxy-1H-pyrrolo[2,3-b]pyridin-3-yl)benzimidazole]
30 | 0.0001 to 1 | Cc1ncc(C#Cc2cnc3[nH]cc(-c4ccc5ncn(C(C)(C)C)c5c4)c3c2)cn1 [P-383, 1-tert-butyl-6-[5-[2-(2-methylpyrimidin-5-yl)ethynyl]-1H-pyrrolo[2,3-b]pyridin-3-yl]benzimidazole]
